{
  "source": "paper PMC12591170",
  "about": "“Glabridin‐Gold(I) Complex as a Novel Immunomodulatory Agent Targeting TrxR and MAPK Pathways for Synergistic Enhancement of Antitumor Immunity” (Advanced Science, 2025)",
  "key": {"Hepa1-6 cells": {"tested_on": "Hepa1-6 cells", "assay": "MTT antiproliferative assay, Hepa1-6", "format": "cell-based", "details": "Hepa 1-6 cells", "experimental": "(§1) All cells were incubated at 37 °C by DMEM complete medium (containing 1% penicillin−streptomycin and 12% FBS) in 5% CO2 incubator. 2–5 × 10^3 cells were cultured in 96‐well plates and each well contained 100 µL complete medium. OXA was dissolved in water, and all other complexes were dissolved in DMF. After cells adhered in the wells, different concentrations of complexes were diluted in 100 µL complete medium and added in the wells. The final volume in the each well was 200 µL and the content of DMF was maximum 0.5%. After 72 h incubation, the antiproliferative activity was tested by MTT assay."}, "293T cells": {"tested_on": "293T cells", "assay": "MTT assay, normal kidney cell line 293T", "format": "cell-based", "details": "72 h MTT assay, Mean ± SD", "experimental": "as §1"}, "[1]": {"assay": "Solubility by UV absorbance", "format": "physicochemical", "details": "PBS: DMF = 200:1, 298K", "experimental": "Weigh a certain amount of 6d, dissolve it in a PBS: DMF = 200:1 solution, and mix to obtain the high‐concentration solution. Then dilute the original solution to prepare solutions of different concentrations. The ultraviolet absorbance values at the maximum absorption wavelength (237 nm) were measured in sequence, and the standard curve was plotted (Figure S40, Supporting Information). Prepare the saturated 6d solution by the same method. After centrifugation, take the supernatant and dilute it 7 times."}, "MEK1/2": {"tested_on": "MEK1/2", "assay": "CETSA and ITDR assay, MEK1/2", "format": "binding, human", "details": "HepG2 proteins, 8 µM, ITDR at 78 °C", "experimental": "The treated HepG2 cells in 10 cm culture dishes were collected and washed with PBS. The collected cells were repeatedly frozen and thawed for 3 times by liquid nitrogen and 37 °C water bath. Then, proteins were isolated by centrifugation. The isolated proteins were divided into different tubes and incubated with same concentration of 6d at different temperature. Western blot was applied for CETSA by analyzing the band intensity of different temperature groups.\nThe temperature, which results in significant band differences between 6d and control group, was selected for ITDR assay. The isolated proteins were divided into different tubes and incubated with different concentration of 6d at same temperature. The binding between 6d and target protein was assessed by analyzing the band intensity of different concentration groups."}, "HepG2 cells": {"tested_on": "HepG2 cells", "assay": "Apoptosis assay (annexin V-EGFP/PI)", "format": "cell-based, human", "details": "HepG2, 24 h", "experimental": "4 × 10^5 HepG2 cells was seeded in 6‐well plates for overnight incubation. DMF (0.1%), AF (4 µM) or different concentrations of 6d (2, 4, 8 µM) were added in the wells for 24 h. PBS was applied to wash cells for two times, and cells were collected subsequently. After washing twice by PBS, Annexin V‐EGFP/PI Apoptosis Detection kit was used to dye the cells. Then, the apoptosis ratio was analyzed by flow cytometer."}, "[2]": {"tested_on": "MAPK pathway (phosphorylated MEK1/2 and ERK1/2)", "assay": "Western blot of MAPK pathway in HepG2", "format": "cell-based, human", "details": "HepG2, 24 h", "experimental": "(§2) HepG2 cells were incubated in 6 cm culture dishes and treated with different complexes. The treated cells were lysed with lysis buffer (RIPA:PMSF:phosphatase inhibitor:protease inhibitor = 100:1:1:1). The lysed cells were further broken by sonication, and proteins were isolated by centrifugation. The protein concentrations were detected by BCA assay. 10% SDS PAGE gel was usually applied to separate the different kDa of proteins, and more than 200 kDa of proteins were separated using 8% SDS PAGE gel. After seperation, proteins were transferred onto polyvinylidene difluoride (PVDF) membranes. The target proteins were labeled by various specific primary antibodies at 4 °C overnight. Then, the membranes were treated with anti‐rabbit or anti‐mouse secondary antibody for 2 h. Tris buffered saline with tween 20 (TBST) was applied to wash the membranes after each operation above. The target proteins’ bands were detected by the enhanced chemiluminescence (ECL) procedure."}, "HIF-1α": {"tested_on": "HIF-1α", "assay": "Western blot of HIF-1α in HepG2", "format": "cell-based, human", "details": "HepG2, 24 h", "experimental": "as §2"}, "Hepa1-6 tumors": {"tested_on": "Hepa1-6 tumors", "assay": "In vivo antitumor assay, Hepa1-6 tumors", "set-up": "species or system C57BL/6 mice"}, "[3]": {"assay": "In vivo tolerability (body weight, survival, organ H&E)", "experimental": "All mice were 6–8 weeks old males and procured from Hangzhou Medical College, located in Hangzhou, China. […] 2 × 10^6 Hepa1‐6 cells in 100 µL DMEM were subcutaneously seeded in underarms of C57BL/6 mice. […] Meanwhile, the mice weights and tumor volume were recorded, and the calculation formula of tumor volume was Volume = Width^2 × Length/2. After 13 days, all mice were sacrificed for collection of tumors, hearts, livers, spleens, lungs and kidneys. Collagenase IV (1 mg mL^−1) and DNase I (1 µg mL^−1) were applied to digest a part of the tumor tissue into cell suspension, and lysis buffer was used to remove red blood cells. The prepared cells above were stained with antibodies (anti‐CD3e‐FITC, and anti‐CD8a‐PE; anti‐CD11c‐APC, anti‐CD80‐PE, and anti‐CD86‐FITC; anti‐CD45‐Percp, anti‐CD11b‐APC, and anti‐Ly‐6G/Ly‐6C(Gr‐1)‐FITC; anti‐CD11b‐APC, anti‐CD206‐PE, and CD86‐FITC). CD3^+CD8^+ T cells, CD80^+CD86^+ DCs, CD11b^+Gr‐1^+ MDSCs, CD206^−CD86^+ M1‐type macrophages and CD206^+CD86^− M2‐type macrophages were analyzed by flow cytometry. Then, another part of tumor tissues were fixed with 4% paraformaldehyde, embedded in paraffin, cut into slices and stained with antibodies for immunofluorescence and immunohistochemistry analysis. H&E stain assays were applied for all tissue samples."}},
  "data": [
    {"compound": "CCn1ccn(CCCCCOc2ccc([C@@H]3COc4c(ccc5c4C=CC(C)(C)O5)C3)c(OCCCCCn3ccn(CC)[c]3=[Au][Br])c2)[c]1=[Au][Br]", "note": "[6d]", "values": [
      {"measurement": "times more toxic than GLA", "setting": "Hepa1-6 cells", "value": 34, "unit": "times"},
      {"measurement": "IC50", "setting": "293T cells", "value": "5.14 ± 0.3", "unit": "µM"},
      {"measurement": "solubility", "setting": "[1]", "value": 108, "unit": "µg/mL"},
      {"measurement": "binding to MEK1/2 (CETSA, ITDR)", "setting": "MEK1/2", "value": "significant binding"},
      {"measurement": "apoptosis", "setting": "HepG2 cells", "value": "apoptosis was observed"},
      {"measurement": "ERK1/2 phosphorylation (western blot, Figure S49)", "setting": "[2]", "value": "downregulated ERK1/2 phosphorylation"},
      {"measurement": "phosphorylation of MEK1/2 and ERK1/2 (western blot)", "setting": "[2]", "value": "significantly inhibited"},
      {"measurement": "HIF-1α expression (western blot)", "setting": "HIF-1α", "value": "significantly inhibited"},
      {"measurement": "tumor volume growth vs model group", "setting": "Hepa1-6 tumors; after 11 days of treatment, 5 mg kg^−1 i.p. every two days", "value": "significant reduction in tumor volume growth"},
      {"measurement": "tumor growth vs model group", "setting": "Hepa1-6 tumors; after 13 days, 6d and OXA 5 mg kg^−1, GLA 10 mg kg^−1, i.p. every two days", "value": "significant tumor growth inhibition"},
      {"measurement": "effect on mice body weight", "setting": "[3]; 6d and OXA 5 mg kg^−1, GLA 10 mg kg^−1, i.p. every two days, OXA after nine days", "value": "no significant effect"},
      {"measurement": "organ tissue damage (H&E staining)", "setting": "[3]; heart, liver, spleen, lung, kidney, day 13", "value": "did not cause noticeable damage to organ tissues"}
    ]}
  ]
}
